Legend:
Type in all cases: cell-based
[1] = biological target: T1, 5-hydroxytryptamine receptor 2A (Homo sapiens, UniProt P28223); assay: Modulation of human 5HT2A expressed in HEK293T cells co-transfected with Galphaq-RLuc8, Ggamma1-GFP2 and Gbeta1 assessed as dissociation of Galphaq from Ggamma1 preincubated for 1 hr followed by addition of coelenterazine 400a substrate and measured after 15 mins by BRET assay relative to 5-HT; details: filed as modulator, time 75.0 min
[2] = biological target: T2, 5-hydroxytryptamine receptor 2C (Homo sapiens, UniProt P28335); assay: Modulation of human 5HT2C expressed in HEK293T cells co-transfected with Galphaq-RLuc8, Ggamma1-GFP2 and Gbeta1 assessed as dissociation of Galphaq from Ggamma1 preincubated for 1 hr followed by addition of coelenterazine 400a substrate and measured after 15 mins by BRET assay
T2 sequence (P28335 whole entry): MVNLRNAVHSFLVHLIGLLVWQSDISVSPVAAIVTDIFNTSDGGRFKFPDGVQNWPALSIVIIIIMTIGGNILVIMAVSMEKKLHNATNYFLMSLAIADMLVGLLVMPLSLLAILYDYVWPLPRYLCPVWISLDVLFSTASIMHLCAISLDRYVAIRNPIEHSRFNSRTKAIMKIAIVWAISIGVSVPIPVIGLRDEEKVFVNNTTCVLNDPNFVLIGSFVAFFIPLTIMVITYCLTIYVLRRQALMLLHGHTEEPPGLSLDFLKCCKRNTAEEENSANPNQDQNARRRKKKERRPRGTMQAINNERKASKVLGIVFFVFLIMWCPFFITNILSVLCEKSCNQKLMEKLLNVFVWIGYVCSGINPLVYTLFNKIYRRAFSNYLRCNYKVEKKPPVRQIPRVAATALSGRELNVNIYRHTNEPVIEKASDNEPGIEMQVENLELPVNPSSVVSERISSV

[3] = biological target: T3, 5-hydroxytryptamine receptor 2B (Homo sapiens, UniProt P41595); assay: Modulation of human 5HT2B expressed in HEK293T cells co-transfected with Galphaq-RLuc8, Ggamma1-GFP2 and Gbeta1 assessed as dissociation of Galphaq from Ggamma1 preincubated for 1 hr followed by addition of coelenterazine 400a substrate and measured after 15 mins by BRET assay relative to 5-HT; details: time 75.0 min
T3 sequence (P41595 whole entry): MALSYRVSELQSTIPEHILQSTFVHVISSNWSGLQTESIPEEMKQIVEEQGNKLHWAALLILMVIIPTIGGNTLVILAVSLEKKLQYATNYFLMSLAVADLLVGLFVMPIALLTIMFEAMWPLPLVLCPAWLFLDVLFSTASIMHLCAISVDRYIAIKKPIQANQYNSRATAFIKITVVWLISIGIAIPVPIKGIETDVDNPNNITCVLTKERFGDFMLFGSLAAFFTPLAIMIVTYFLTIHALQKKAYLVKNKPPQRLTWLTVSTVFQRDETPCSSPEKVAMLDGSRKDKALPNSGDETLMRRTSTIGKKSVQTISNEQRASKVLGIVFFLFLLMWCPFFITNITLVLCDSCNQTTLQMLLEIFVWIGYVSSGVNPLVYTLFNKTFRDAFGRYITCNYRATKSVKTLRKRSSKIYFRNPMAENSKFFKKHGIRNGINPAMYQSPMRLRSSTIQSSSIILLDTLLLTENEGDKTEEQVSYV

[4] = biological target: T3, 5-hydroxytryptamine receptor 2B; assay: Modulation of human 5HT2B expressed in HEK293T cells co-transfected with Galphaq-RLuc8, Ggamma1-GFP2 and Gbeta1 assessed as dissociation of Galphaq from Ggamma1 preincubated for 1 hr followed by addition of coelenterazine 400a substrate and measured after 15 mins by BRET assay
[5] = biological target: T1, 5-hydroxytryptamine receptor 2A; assay: Modulation of human 5HT2A expressed in HEK293T cells co-transfected with Galphaq-RLuc8, Ggamma1-GFP2 and Gbeta1 assessed as dissociation of Galphaq from Ggamma1 preincubated for 1 hr followed by addition of coelenterazine 400a substrate and measured after 15 mins by BRET assay

T1 sequence (P28223 whole entry): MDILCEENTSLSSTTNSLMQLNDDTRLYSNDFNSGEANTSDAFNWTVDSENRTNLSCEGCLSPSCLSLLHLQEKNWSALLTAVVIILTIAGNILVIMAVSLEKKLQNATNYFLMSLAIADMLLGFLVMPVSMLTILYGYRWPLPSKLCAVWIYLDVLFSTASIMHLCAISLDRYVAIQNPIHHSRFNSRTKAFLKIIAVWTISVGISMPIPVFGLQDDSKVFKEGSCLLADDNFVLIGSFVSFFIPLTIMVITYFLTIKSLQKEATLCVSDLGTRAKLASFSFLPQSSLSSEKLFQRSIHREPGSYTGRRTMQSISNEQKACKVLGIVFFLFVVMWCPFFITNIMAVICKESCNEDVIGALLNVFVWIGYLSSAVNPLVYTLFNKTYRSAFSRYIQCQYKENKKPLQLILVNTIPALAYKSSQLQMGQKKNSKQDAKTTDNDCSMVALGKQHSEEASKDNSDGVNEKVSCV

**Q.** Which results are given for `CN(C)CCc1cn(C)c2cccc(O)c12`?
**A.** Efficacy [1]: 73%; IC50 [2]: 9.51 nM; Efficacy ([3]; filed as modulator): 40%; IC50 ([4]; read-out: IC50): 31.7 nM; IC50 [5]: 86.3 nM

**Q.** For `CN(C)CCc1c[nH]c2cccc(O)c12`, which Efficacy [1] is on record?
**A.** The Efficacy was 82%.

**Q.** And the Efficacy ([3]; filed as modulator)?
**A.** The Efficacy was 63%.

**Q.** Which results are given for `CCN(C)CCc1cn(C)c2cccc(O)c12`?
**A.** Efficacy [1]: 66%; Efficacy ([3]; filed as modulator): 44%

**Q.** `CCn1cc(CCN(C)C)c2c(O)cccc21` was tested. Which Efficacy [1] did it give?
**A.** Its Efficacy is 65%.

**Q.** What about the IC50 [2] of the same compound?
**A.** Its IC50 is 0.9 nM.

**Q.** And the IC50 ([4]; hek293t)?
**A.** The IC50 was “Not Active”.

**Q.** What about the IC50 [5] of the same compound?
**A.** Its IC50 is 196 nM.

**Q.** What does the source list for `CN(C)CCc1cn(CCF)c2cccc(O)c12`?
**A.** Efficacy [1]: 48%; IC50 [2]: 2.7 nM; IC50 ([4]; hek293t): Not Active; IC50 [5]: 188 nM

**Q.** For `CN(C)CCc1cn(CC2CC2)c2cccc(O)c12`, which Efficacy [1] is on record?
**A.** Its Efficacy is 29%.

**Q.** What about the IC50 ([4]; hek293t) of the same compound?
**A.** The IC50 was “Not Active”.

**Q.** `CC(C)N(C)CCc1cn(C)c2cccc(O)c12` was tested. Which Efficacy [1] did it give?
**A.** Its Efficacy is 85%.

**Q.** And the Efficacy ([3]; filed as modulator)?
**A.** Its Efficacy is 83%.

**Q.** What does the source list for `CN(CCc1cn(C)c2cccc(O)c12)CC1CC1`?
**A.** Efficacy [1]: 55%; Efficacy [3]: 19%
